Test results published in US11518785B2, “Peptide showing melanogenesis promoting activity and use thereof” (CAREGEN CO., LTD., priority 2017, dated 2022).
“And” between values parts separate entries of the source, which are not always exact repeats. Equal entries are not always repeated.

Assays:
Format in all cases: cell-based, mouse
[1] = test system: tyrosinase mRNA in B16F10 cell line; assay: RT-PCR of melanogenesis-related genes: tyrosinase; settings: B16F10 treated with the peptide, 72 hours, result in words
Method: (§1) Melanocytes (B16F10 cell line) were seeded on 6-well culture plates at the density of 5×10^4 cells/well and incubated in an incubator for 24 hours. Then, the medium was replaced with […], and the cells were treated with the peptides of the present invention with different concentrations and cultured for 72 hours. Next, after RNA extraction of cells and quantification, cDNA was synthesized by using the cDNA synthesis kit (Intron, Korea). […] Then, degrees of mRNA expression of the growth factors under each sample treatment conditions were compared by running the resultants on a 5% agarose gel, and the results are shown in FIGS. 3, 8, and 13.

[2] = test system: TRP1 mRNA in B16F10 cell line; assay: RT-PCR of melanogenesis-related genes: TRP1; settings: B16F10 treated with the peptide, 72 hours, result in words
Method: as §1

[3] = test system: tyrosinase in melanoma cell line (B16F10) cells; assay: Tyrosinase activity assay in lysates of treated cells (L-DOPA); settings: for Tyrosinase activity (%): B16F10, 72 hours, control group = 100; for tyrosinase activity: mouse melanin cell line B16F10 treated with the peptide, result in words
Method: Melanoma cell line (B16F10) cells were cultured in 6-well culture plates for 24 hours, and treated with the peptide with different concentrations, followed by culture for 72 hours. The 6-well culture plates were loaded on ice and washed with cool PBS, and then 300 μl of 0.1 M sodium phosphate buffer (pH 6.8, lysis buffer) containing 1% Triton X-100 was added. The cells were collected in 1.5-ml tubes, and then cell membranes were disrupted by repeating five times rapid-freezing at […] and thawing. After centrifugation at 15,000 rpm for 10 minutes, the supernatant was collected in other 1.5-mL tubes, and the protein of the samples was quantified. The samples were diluted to have the same protein concentration and then dispensed in every three wells in 96-well culture plates, and then 20 μl of 10 mM L-DOPA was added, followed by incubation at 37° C. for 1 hour The blank and positive control were as shown in Table 5.
Then, the absorbance was measured at 475 nm, and the results are shown in FIGS. 2, 7, and 12, and Tables 6 to 8.

[4] = test system: CREB phosphorylation in B16F10 cell line; assay: Melanogenesis-related protein activity assay (CREB phosphorylation, western blotting); settings: B16F10 treated with the peptide, 48-hour incubation, result in words
Method: Melanocytes (B16F10 cell line) were seeded on 6-well culture plates at the density of 5×10^4 cells/well and incubated in an incubator for 24 hours, and the cells were treated with the peptides of the present invention with different concentrations. After 48-hour incubation, the cells were lysed, and the cells were subjected to western blotting using specific antibodies (Cell Signaling Technology, USA) to investigate the phosphorylation level of CREB, which is a signaling substance involved in melanogenesis.

[5] = test system: melanocytes (B16F10 cell line); assay: Melanogenesis assay (melanin content); settings: for Melanin content (%): B16F10, 72 hours, control group = 100; for melanogenesis: mouse melanin cell line B16F10 treated with the peptide, result in words
Method: After seeding melanocytes (B16F10 cell line) in 6-well plates at the density of 5×10^4 cells/well, the melanocytes were cultured in an incubator at a temperature of 37° C. for 24 hours, and the medium of each plate was removed and replaced with 2% serum-containing media, followed by treatment with the present peptide at different concentrations and then incubation of 72 hours.
Then, the culture medium was removed, and the cells were taken off and then transferred into 1.5-ml tubes, followed by centrifugation at 13,000 rpm for 3 minutes to remove the supernatant. Next, cell pellets were collected to observe melanin. 150 μl of 1 N NaOH was added to the cell pellets to lyse intracellular melanin at a temperature of 60° C. for 30 minutes.

[6] = test system: MITF mRNA in B16F10 cell line; assay: RT-PCR of melanogenesis-related genes: MITF; settings: B16F10 treated with the peptide, 72 hours, result in words
Method: as §1

[7] = test system: MITF and tyrosinase protein in B16F10 cell line; assay: Western blotting of melanogenesis-related proteins; settings: B16F10 treated with the peptide, 72-hour incubation, result in words
Method: Melanocytes (B16F10 cell line) were seeded on 6-well culture plates at the density of 5×10^4 cells/well and incubated in an incubator for 24 hours, and the cells were treated with the peptides of the present invention with different concentrations. After 72-hour incubation, the cells were lysed, and the cells were subjected to western blotting using antibodies (antacruz biotechnology, USA) each specific to MITF and tyrosinase, which are the factors involved in melanogenesis.

Substance	mRNA expression of tyrosinase [1]	mRNA expression of TRP1 [2]	Tyrosinase activity (%) ([3]; 10 μM peptide)	Tyrosinase activity (%) ([3]; 50 μM peptide)	tyrosinase activity [3]	phosphorylation level of CREB [4]	Melanin content (%) ([5]; 10 μM peptide)	Melanin content (%) ([5]; 50 μM peptide)	melanogenesis [5]	mRNA expression of MITF [6]	protein expression involved in the process of melanogenesis (MITF, tyrosinase) [7]	Tyrosinase activity (%) ([3]; 200 nM a-MSH)
FCLGPCPYIWSL [SEQ ID NO: 1]	increased	increased	157%	201%	increased	increased	125%	264%	increased	increased	increased	–
KVTAMRCFLL [SEQ ID NO: 2]	increased	increased	144%	189%	increased	increased	109%	155%	increased	increased	increased	–
RVTAMRCFLL [SEQ ID NO: 3]	increased	increased	114%	173%	increased	increased	106%	164%	increased	increased	increased	–
α-melanocyte stimulating hormone [a-MSH, reference compound]	–	–	–	–	–	–	–	–	–	–	–	467% and 484%
